PMC6150412, “Design, Synthesis, and Evaluation of Novel Phenolic Acid/Dipeptide/Borneol Hybrids as Potent Angiotensin Converting Enzyme (ACE) Inhibitors with Anti-hypertension Activity” (Molecules : A Journal of Synthetic Chemistry and Natural …, 2017)

Tests used:
[1] = target: T1, angiotensin converting enzyme (ACE) (Oryctolagus cuniculus, UniProt P12822); test: In vitro ACE inhibition assay (hippuric acid release from HHL); type: biochemical; details: HHL substrate, pH 8.3, 37 °C, 15 min; five concentrations 0.01–10 µM; read-out: ACE-inhibitory activity IC50
T1 construct: purchased Sigma-aldrich, St. Louis, MO, USA A-6778
T1 sequence (P12822 34-1310): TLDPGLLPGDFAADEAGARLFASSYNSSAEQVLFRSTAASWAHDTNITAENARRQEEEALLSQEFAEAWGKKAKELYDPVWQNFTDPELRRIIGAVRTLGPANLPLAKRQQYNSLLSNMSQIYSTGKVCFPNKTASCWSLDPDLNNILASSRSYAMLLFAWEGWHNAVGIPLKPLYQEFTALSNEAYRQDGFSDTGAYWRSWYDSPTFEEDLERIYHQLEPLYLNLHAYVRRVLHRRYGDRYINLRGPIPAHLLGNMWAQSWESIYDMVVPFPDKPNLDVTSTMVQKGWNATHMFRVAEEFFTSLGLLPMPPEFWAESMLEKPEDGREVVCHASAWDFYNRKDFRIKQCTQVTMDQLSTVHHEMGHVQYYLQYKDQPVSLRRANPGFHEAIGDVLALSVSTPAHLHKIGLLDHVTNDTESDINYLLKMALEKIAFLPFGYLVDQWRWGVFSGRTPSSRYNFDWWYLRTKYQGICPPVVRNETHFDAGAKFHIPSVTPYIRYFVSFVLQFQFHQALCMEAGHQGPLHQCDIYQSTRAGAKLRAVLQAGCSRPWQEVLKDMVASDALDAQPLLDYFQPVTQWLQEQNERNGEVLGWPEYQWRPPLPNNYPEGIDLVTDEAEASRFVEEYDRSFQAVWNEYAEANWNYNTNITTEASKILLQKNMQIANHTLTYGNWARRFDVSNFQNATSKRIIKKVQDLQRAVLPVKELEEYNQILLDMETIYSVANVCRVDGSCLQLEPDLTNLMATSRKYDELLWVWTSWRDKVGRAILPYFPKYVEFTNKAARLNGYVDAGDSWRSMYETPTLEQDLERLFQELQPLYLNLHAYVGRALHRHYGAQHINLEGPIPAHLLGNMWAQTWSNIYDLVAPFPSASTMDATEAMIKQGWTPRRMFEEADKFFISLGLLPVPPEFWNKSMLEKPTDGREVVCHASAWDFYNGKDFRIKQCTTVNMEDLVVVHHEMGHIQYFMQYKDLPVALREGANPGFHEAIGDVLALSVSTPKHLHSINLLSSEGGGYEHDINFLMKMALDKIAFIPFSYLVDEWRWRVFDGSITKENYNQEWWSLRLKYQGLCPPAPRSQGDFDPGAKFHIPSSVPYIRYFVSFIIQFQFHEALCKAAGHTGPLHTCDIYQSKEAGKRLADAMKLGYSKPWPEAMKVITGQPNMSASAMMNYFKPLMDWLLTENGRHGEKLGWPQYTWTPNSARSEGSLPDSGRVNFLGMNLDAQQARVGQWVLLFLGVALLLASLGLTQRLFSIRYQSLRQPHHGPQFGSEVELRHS
Experimental: The in vitro ACE-inhibitory activity of the newly synthesized compounds was evaluated using ACE inhibition assay (Sigma-aldrich, St. Louis, MO, USA, No. A-6778). The experiments were carried out for all the designed compounds (7a–7h), for ACE-inhibitory activity at five different concentrations (0.01–10 µM). Lisinopril, a well-known ACE inhibitor drug, was used as standard for comparison with the inhibitory activity of synthesized compounds. The ACE-inhibitory activity can be calculated by the following equation: ACE-inhibitory activity (inhibition rate %) = [(Ablank1 − Asample)/(Ablank1 − Ablank2)] × 100, where blank 1: Positive control (without ACE inhibition) and blank 2: Reagent blank. Then we measured and calculated the IC50 values of the designed compounds (7a–7h).
The preliminary biological investigations were conducted in vitro using the ACE-inhibition assay. […] That is, the activity of these compounds gradually declined when the size of the amino acid side chain increased. Besides, the influence of phenolic acids on ACE-inhibitory activity was more obvious following the order: protocatechuic acid > ferulic acid > gallic acid > 3,4-dihydroxybenzene acid. That is, substituents in positions 3 and 4 in the benzene ring are beneficial to the increase of ACE-inhibitory activity. At the same time, the shorter the amino side chain in phenolic acids, the better the ACE-inhibitory activity.

[2] = test system: spontaneously hypertensive rats (SHRs); test: Acute antihypertensive test, single intragastric dose, tail-cuff BP; type: in vivo, rat; details: for Duration of antihypertensive activity / Reduction in blood pressure (systolic arterial pressure) compared with lisinopril: single oral dose; for Reduction in blood pressure (systolic arterial pressure) compared with lisinopril: same molar dose as lisinopril
Experimental: (§1) All the experiments were approved by the Institutional Animal Ethics Committee of Northwest University. Experiments were carried out on spontaneously hypertension rats (SHRs) that were 9–10 weeks old and weighed 200–220 g. SHRs treated with normal saline were used as controls. Lisinopril was used as a standard drug. Blood pressure (BP) was recorded automatically every day by the indirect tail-cuff method using an electrosphygmomanometer (BP-2010A Storage Pressure Meter). […] The BP were measured before and 0.5, 1, 2, 3, 4, 5 and 6 h after a single dose of intragastrical administration of active compounds.
(§2) Figure 4 (A,B), the acute antihypertensive activity of compounds 7a and 7g in spontaneously hypertension rats (SHRs) for single dose administration (dosing time: 0 min); (C) the therapeutic antihypertensive activity of compounds 7a and 7g in SHRs for 7 days treatment (dosing time: 0 day; blood pressure (BP) measured time: 9:30–11:30 am). Data are presented as mean ± SEM, n = 6. The BP was determined with a BP-2010A Storage Pressure Meter. This system measures BP by recording the cuff pressure at which the interrupted blood flow returns to the tail. Before drug administration, training consisted of five sessions over 3 days. The SHRs were placed into a thermostatically controlled Lucite box of the Visitech system BP2010A, and heated on a heated pad maintained at 37 °C for 2 min before BP measurement started. The tail root of SHR was surrounded by an inflatable tubular sleeve, and a pulse electron detector was placed in the root of the tails. Then BP was measured after the computer provided a stable signal. The BP for the session was accepted as the average of five BP readings that were within 10 mm Hg. The average BP values were calculated by employing the ANOVA method.

[3] = test system: spontaneously hypertensive rats (SHRs); test: Therapeutic antihypertensive test, 7 consecutive days oral treatment, tail-cuff BP; type: in vivo, rat; details: for Maximum antihypertensive effect compared with lisinopril (20 mg/kg/day): 100 mg/kg daily, oral, 7 days; for Blood pressure during repeated treatment: 100 mg/kg, Po. 7 days
Experimental: as §1, §2

For `COc1cc(/C=C/C(=O)N[C@@H](CC(C)C)C(=O)N2CCC[C@H]2C(=O)OC2CC3CCC2(C)C3(C)C)ccc1O` (stereo partly shown) [Compound 7g], the IC50 [1] was 6.88 ± 0.85 µM, the “Onset of antihypertensive activity after oral treatment” value [2] was 0.5 h and the “Duration of antihypertensive activity” value [2] was “four”. The “Reduction in blood pressure (systolic arterial pressure) compared with lisinopril” value [2] was “slightly better than that of lisinopril”, the “Maximum antihypertensive effect compared with lisinopril (20 mg/kg/day)” value [3] was “approximately equivalent to that of lisinopril” and the “Blood pressure during repeated treatment” value [3] was “decreased remarkably on the second day after oral administration”.
`CC(C)C[C@H](NC(=O)c1cc(O)c(O)c(O)c1)C(=O)N1CCC[C@H]1C(=O)OC1CC2CCC1(C)C2(C)C` (stereo partly shown) [Compound 7h] showed an IC50 [1] of 13.2 ± 2.47 µM.
With `CC(C)C[C@H](NC(=O)Cc1ccc(O)c(O)c1)C(=O)N1CCC[C@H]1C(=O)OC1CC2CCC1(C)C2(C)C` (stereo partly shown) [Compound 7f] the IC50 [1] was 14 ± 1.84 µM.
In the case of `CC(C)[C@H](NC(=O)c1ccc(O)c(O)c1)C(=O)N1CCC[C@H]1C(=O)OC1CC2CCC1(C)C2(C)C` (stereo partly shown) [Compound 7a], the IC50 [1] is reported as 6.76 ± 0.96 µM, the “Onset of antihypertensive activity after oral treatment” value [2] is reported as 0.5 h and the “Duration of antihypertensive activity” value [2] is reported as “four”. For the same compound, the “Reduction in blood pressure (systolic arterial pressure) compared with lisinopril” value [2] was “slightly better than that of lisinopril”, the “Maximum antihypertensive effect compared with lisinopril (20 mg/kg/day)” value [3] was “approximately equivalent to that of lisinopril” and the “Blood pressure during repeated treatment” value [3] was “decreased remarkably on the second day after oral administration”.
`CC(C)C[C@H](NC(=O)c1ccc(O)c(O)c1)C(=O)N1CCC[C@H]1C(=O)OC1CC2CCC1(C)C2(C)C` (stereo partly shown) [Compound 7e] was tested, and the IC50 [1] was 10.6 ± 1.72 µM.
Work on `NCCCC[C@H](N[C@@H](CCc1ccccc1)C(=O)O)C(=O)N1CCC[C@H]1C(=O)O` [Lisinopril, reference compound] yielded an IC50 [1] of less than 0.01 µM.
`CC(C)[C@H](NC(=O)c1cc(O)c(O)c(O)c1)C(=O)N1CCC[C@H]1C(=O)OC1CC2CCC1(C)C2(C)C` (stereo partly shown) [Compound 7d] was tested, and the IC50 [1] was 13.5 ± 2.02 µM.
`CC(C)[C@H](NC(=O)Cc1ccc(O)c(O)c1)C(=O)N1CCC[C@H]1C(=O)OC1CC2CCC1(C)C2(C)C` (stereo partly shown) [Compound 7b] gave an IC50 [1] of 13.9 ± 1.61 µM.
`COc1cc(/C=C/C(=O)N[C@H](C(=O)N2CCC[C@H]2C(=O)OC2CC3CCC2(C)C3(C)C)C(C)C)ccc1O` (stereo partly shown) [Compound 7c] showed an IC50 [1] of 11.9 ± 1.82 µM.
